Results: the supplement of paper PMC10307832

What was measured:
Assay in all cases: relative viability (nuclei count vs DMSO), 5 days (fraction); higher = more cells survive
H3255 = system: H3255
Method in brief: (§1)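 Five library-drug doses in √10 steps were combined with a fixed anchor-drug dose, or a single drug was given alone, by pin tool to lung cancer cell lines in 1536-well plates the day after seeding. Nuclei were stained and counted after 5 days. Relative viability is the nuclei count in treated wells over that in vehicle wells, taken as the median of duplicate plates.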

LCLC-103H = system: LCLC-103H
Method in brief: as §1

LXF-289 = system: LXF-289
Method in brief: as §1

NCI-H1437 = system: NCI-H1437
Method in brief: as §1

UMC-11 = system: UMC-11
Method in brief: as §1

PC-3 [JPC-3] = system: PC-3 [JPC-3]
Method in brief: as §1

HCC-15 = system: HCC-15
Method in brief: as §1

NCI-H2228 = system: NCI-H2228
Method in brief: as §1

NCI-H661 = system: NCI-H661
Method in brief: as §1

ABC-1 = system: ABC-1
Method in brief: as §1

NCI-H2009 = system: NCI-H2009
Method in brief: as §1

SK-MES-1 = system: SK-MES-1
Method in brief: as §1

NCI-H23 = system: NCI-H23
Method in brief: as §1

LC-2-ad = system: LC-2-ad
Method in brief: as §1

HCC-827 = system: HCC-827
Method in brief: as §1

NCI-H2342 = system: NCI-H2342
Method in brief: as §1

NCI-H2085 = system: NCI-H2085
Method in brief: as §1

PC-14 = system: PC-14
Method in brief: as §1

NCI-H1666 = system: NCI-H1666
Method in brief: as §1

NCI-H1975 = system: NCI-H1975
Method in brief: as §1

NCI-H2087 = system: NCI-H2087
Method in brief: as §1

COR-L23 = system: COR-L23
Method in brief: as §1

Structure (SMILES): Cc1cn(-c2cc(NC(=O)c3ccc(C)c(Nc4nccc(-c5cccnc5)n4)c3)cc(C(F)(F)F)c2)cn1 [Nilotinib] + CCNC(=O)c1noc(-c2cc(C(C)C)c(O)cc2O)c1-c1ccc(CN2CCOCC2)cc1 [Luminespib] (partner 0.01 µM)
- relative viability (H3255; first compound 0.001 µM): 0.9
- relative viability (H3255; first compound 0.003162 µM): 0.733
- relative viability (H3255; first compound 0.03162 µM): 0.922
- relative viability (H3255; first compound 0.1 µM): 0.325
- relative viability (LCLC-103H; first compound 0.001 µM): 0.971
- relative viability (LCLC-103H; first compound 0.003162 µM): 1.3
- relative viability (LCLC-103H; first compound 0.01 µM): 1.33
- relative viability (LCLC-103H; first compound 0.03162 µM): 0.927
- relative viability (LCLC-103H; first compound 0.1 µM): 0.919
- relative viability (LXF-289; first compound 0.001 µM): 0.655
- relative viability (LXF-289; first compound 0.003162 µM): 1.02
- relative viability (LXF-289; first compound 0.01 µM): 0.988
- relative viability (LXF-289; first compound 0.03162 µM): 0.573
- relative viability (LXF-289; first compound 0.1 µM): 0.649
- relative viability (NCI-H1437; first compound 0.001 µM): 1.11
- relative viability (NCI-H1437; first compound 0.003162 µM): 1.3
- relative viability (NCI-H1437; first compound 0.01 µM): 1.26
- relative viability (NCI-H1437; first compound 0.03162 µM): 0.885
- relative viability (NCI-H1437; first compound 0.1 µM): 0.934
- relative viability (UMC-11; first compound 0.001 µM): 0.978
- relative viability (UMC-11; first compound 0.003162 µM): 1.22
- relative viability (UMC-11; first compound 0.01 µM): 1.26
- relative viability (UMC-11; first compound 0.1 µM): 1.39
- relative viability (PC-3 [JPC-3]; first compound 0.001 µM): 0.548
- relative viability (PC-3 [JPC-3]; first compound 0.003162 µM): 0.627
- relative viability (PC-3 [JPC-3]; first compound 0.01 µM): 0.869
- relative viability (PC-3 [JPC-3]; first compound 0.03162 µM): 0.659
- relative viability (PC-3 [JPC-3]; first compound 0.1 µM): 0.526
- relative viability (HCC-15; first compound 0.001 µM): 0.241
- relative viability (HCC-15; first compound 0.003162 µM): 0.431
- relative viability (HCC-15; first compound 0.01 µM): 0.486
- relative viability (HCC-15; first compound 0.03162 µM): 0.219
- relative viability (HCC-15; first compound 0.1 µM): 0.325
- relative viability (NCI-H2228; first compound 0.003162 µM): 0.161
- relative viability (NCI-H2228; first compound 0.01 µM): 0.183
- relative viability (NCI-H2228; first compound 0.03162 µM): 0.151
- relative viability (NCI-H2228; first compound 0.1 µM): 0.0953
- relative viability (NCI-H661; first compound 0.001 µM): 1.01
- relative viability (NCI-H661; first compound 0.003162 µM): 0.961
- relative viability (NCI-H661; first compound 0.03162 µM): 1.01
- relative viability (NCI-H661; first compound 0.1 µM): 0.832
- relative viability (ABC-1; first compound 0.001 µM): 0.508
- relative viability (ABC-1; first compound 0.003162 µM): 0.227
- relative viability (ABC-1; first compound 0.01 µM): 0.554
- relative viability (ABC-1; first compound 0.03162 µM): 1.28
- relative viability (ABC-1; first compound 0.1 µM): 0.252
- relative viability (NCI-H2009; first compound 0.001 µM): 0.886
- relative viability (NCI-H2009; first compound 0.003162 µM): 1.14
- relative viability (NCI-H2009; first compound 0.01 µM): 1.16
- relative viability (NCI-H2009; first compound 0.03162 µM): 0.955
- relative viability (NCI-H2009; first compound 0.1 µM): 1.12
- relative viability (SK-MES-1; first compound 0.001 µM): 0.784
- relative viability (SK-MES-1; first compound 0.003162 µM): 0.985
- relative viability (SK-MES-1; first compound 0.01 µM): 0.927
- relative viability (SK-MES-1; first compound 0.03162 µM): 0.672
- relative viability (SK-MES-1; first compound 0.1 µM): 0.626
- relative viability (NCI-H23; first compound 0.001 µM): 0.204
- relative viability (NCI-H23; first compound 0.01 µM): 0.205
- relative viability (NCI-H23; first compound 0.03162 µM): 0.19
- relative viability (NCI-H23; first compound 0.1 µM): 0.195
- relative viability (LC-2-ad; first compound 0.001 µM): 0.85
- relative viability (LC-2-ad; first compound 0.003162 µM): 1.15
- relative viability (LC-2-ad; first compound 0.01 µM): 1.21
- relative viability (LC-2-ad; first compound 0.03162 µM): 0.947
- relative viability (LC-2-ad; first compound 0.1 µM): 0.8
- relative viability (HCC-827; first compound 0.003162 µM): 0.634
- relative viability (HCC-827; first compound 0.01 µM): 0.721
- relative viability (HCC-827; first compound 0.03162 µM): 0.563
- relative viability (HCC-827; first compound 0.1 µM): 0.542
- relative viability (NCI-H2342; first compound 0.001 µM): 0.595
- relative viability (NCI-H2342; first compound 0.003162 µM): 0.675
- relative viability (NCI-H2342; first compound 0.01 µM): 0.698
- relative viability (NCI-H2342; first compound 0.03162 µM): 0.586
- relative viability (NCI-H2342; first compound 0.1 µM): 0.673
- relative viability (NCI-H2085; first compound 0.001 µM): 0.392
- relative viability (NCI-H2085; first compound 0.003162 µM): 0.46
- relative viability (NCI-H2085; first compound 0.01 µM): 0.427
- relative viability (NCI-H2085; first compound 0.03162 µM): 0.375
- relative viability (NCI-H2085; first compound 0.1 µM): 0.382
- relative viability (PC-14; first compound 0.001 µM): 0.168
- relative viability (PC-14; first compound 0.003162 µM): 0.152
- relative viability (PC-14; first compound 0.01 µM): 0.138
- relative viability (PC-14; first compound 0.03162 µM): 0.123
- relative viability (PC-14; first compound 0.1 µM): 0.153
- relative viability (NCI-H1666; first compound 0.001 µM): 1.02
- relative viability (NCI-H1666; first compound 0.003162 µM): 1.01
- relative viability (NCI-H1666; first compound 0.01 µM): 1.1
- relative viability (NCI-H1666; first compound 0.03162 µM): 0.999
- relative viability (NCI-H1666; first compound 0.1 µM): 1.17
- relative viability (NCI-H1975; first compound 0.001 µM): 0.212
- relative viability (NCI-H1975; first compound 0.003162 µM): 0.143
- relative viability (NCI-H1975; first compound 0.01 µM): 0.171
- relative viability (NCI-H1975; first compound 0.03162 µM): 0.205
- relative viability (NCI-H1975; first compound 0.1 µM): 0.138
- relative viability (NCI-H2087; first compound 0.001 µM): 0.162
- relative viability (NCI-H2087; first compound 0.003162 µM): 0.219
- relative viability (NCI-H2087; first compound 0.01 µM): 0.202
- relative viability (NCI-H2087; first compound 0.03162 µM): 0.172
- relative viability (NCI-H2087; first compound 0.1 µM): 0.164
- relative viability (COR-L23; first compound 0.001 µM): 0.478
- relative viability (COR-L23; first compound 0.003162 µM): 0.557
- relative viability (COR-L23; first compound 0.01 µM): 0.883
- relative viability (COR-L23; first compound 0.03162 µM): 0.507
- relative viability (COR-L23; first compound 0.1 µM): 0.535
